Molecules are shown by their SMILES.

The target of one test is T1, glucocorticoid receptor (Homo sapiens, UniProt P04150).
T1 construct: endogenous in cells; ATCC cat
T1 sequence (P04150 1-777): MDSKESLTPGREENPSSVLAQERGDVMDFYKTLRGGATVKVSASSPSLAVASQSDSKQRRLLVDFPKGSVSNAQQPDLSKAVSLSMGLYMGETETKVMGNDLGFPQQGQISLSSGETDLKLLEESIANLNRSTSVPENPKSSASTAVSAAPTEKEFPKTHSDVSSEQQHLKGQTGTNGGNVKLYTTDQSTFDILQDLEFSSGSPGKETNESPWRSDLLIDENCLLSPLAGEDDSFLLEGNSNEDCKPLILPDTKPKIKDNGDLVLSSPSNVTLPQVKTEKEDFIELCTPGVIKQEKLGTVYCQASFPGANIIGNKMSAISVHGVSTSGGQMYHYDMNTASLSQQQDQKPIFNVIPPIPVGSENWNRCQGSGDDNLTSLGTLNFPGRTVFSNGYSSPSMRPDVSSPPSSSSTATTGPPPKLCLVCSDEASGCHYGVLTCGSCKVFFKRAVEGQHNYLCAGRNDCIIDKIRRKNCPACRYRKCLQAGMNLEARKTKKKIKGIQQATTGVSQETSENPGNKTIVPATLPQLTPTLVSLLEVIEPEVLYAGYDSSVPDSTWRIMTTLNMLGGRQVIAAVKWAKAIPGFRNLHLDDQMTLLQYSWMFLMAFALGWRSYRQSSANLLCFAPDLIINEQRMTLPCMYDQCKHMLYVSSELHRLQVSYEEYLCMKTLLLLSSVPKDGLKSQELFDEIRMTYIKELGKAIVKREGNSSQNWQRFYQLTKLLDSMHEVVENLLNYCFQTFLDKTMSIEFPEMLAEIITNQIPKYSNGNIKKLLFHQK
Put plainly: Hep G2 TAT Ki: inhibition of dexamethasone-induced TAT in HepG2 cells (96 well). It counts as cell-based. To be noted: challenge of 100 nM dexamethasone, IC50 converted to Ki by Cheng and Prusoff equation. The method in brief:
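Cells lysed 15 min at 4 °C; TAT enzyme reaction 2 h at 37 °C, stopped with KOH, 30 min further at 37 °C. Inhibition fitted to 4-parameter logistic.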
What is called Ki is a measure of affinity in units of concentration, obtained from inhibition or displacement. Low readings indicate tighter binding, high ones weaker binding. Molecule `Cc1ccccc1CN1CCN(S(=O)(=O)c2cnn(C)n2)CC1c1cc2cnn(-c3ccc(F)cc3)c2cc1C` (centres unmarked) [Example 71, 1-(4-fluorophenyl)-6-methyl-5-(4-((2-methyl-2H-1,2,3-triazol-4-yl)sulfonyl)-1-(2-methylbenzyl)piperazin-2-yl)-1H-indazole] showed an inhibition constant (Ki) of 160 nM.

For the molecule `Cc1cc2c(cnn2-c2ccc(F)cc2)cc1[C@@H]1CN(S(=O)(=O)c2cnn(C)n2)CCN1CCC(F)(F)F` [Example 84, (R)-1-(4-fluorophenyl)-6-methyl-5-(4-((2-methyl-2H-1,2,3-triazol-4-yl)sulfonyl)-1-(3,3,3-trifluoropropyl)piperazin-2-yl)-1H-indazole], the affinity, expressed as Ki, was 14 nM.

`Cc1cc2c(cnn2-c2ccc(F)cc2)cc1C1CN(S(=O)(=O)c2cnn(C)n2)CCN1c1ccccc1` (centres unmarked) [Example 86, 1-(4-fluorophenyl)-6-methyl-5-(4-((2-methyl-2H-1,2,3-triazol-4-yl)sulfonyl)-1-phenylpiperazin-2-yl)-1H-indazole] returned a Ki of 180 nM. Compared with the last molecule, the Ki is about 13-fold higher.

Molecule `Cc1cc2c(cnn2-c2ccc(F)cc2)cc1C1CN(S(=O)(=O)c2cnn(C)n2)CC(C)N1CC(C)C` (centres unmarked) [Example 87, 1-(4-fluorophenyl)-5-(1-isobutyl-6-methyl-4-((2-methyl-2H-1,2,3-triazol-4-yl)sulfonyl)piperazin-2-yl)-6-methyl-1H-indazole] showed a Ki of 54 nM. Compared with the last molecule, the Ki is about 3.3-fold lower.

`Cc1cc2c(cnn2-c2ccc(F)cc2)cc1C1C(C)N(S(=O)(=O)c2cnn(C)n2)CCN1CC(C)C` (centres unmarked) [Example 88, 1-(4-fluorophenyl)-5-(1-isobutyl-3-methyl-4-((2-methyl-2H-1,2,3-triazol-4-yl)sulfonyl)piperazin-2-yl)-6-methyl-1H-indazole] registered a Ki of 35 nM.

In turn, `Cc1cc2c(cnn2-c2ccc(F)cc2)cc1C1CN(S(=O)(=O)c2cnn(C)n2)C(C)CN1CC(C)C` (centres unmarked) [Example 89, 1-(4-fluorophenyl)-5-(1-isobutyl-5-methyl-4-((2-methyl-2H-1,2,3-triazol-4-yl)sulfonyl)piperazin-2-yl)-6-methyl-1H-indazole] registered a Ki of 34 nM.

In turn, `Cc1cc2c(cnn2-c2ccc(F)cc2)cc1C1C(=O)N(S(=O)(=O)c2cnn(C)n2)CCN1CC(C)C` (centres unmarked) [Example 152, 3-(1-(4-fluorophenyl)-6-methyl-1H-indazol-5-yl)-4-isobutyl-1-((2-methyl-2H-1,2,3-triazol-4-yl)sulfonyl)piperazin-2-one] showed an inhibition constant (Ki) of 120 nM.

`Cc1cc2c(cnn2-c2ccc(F)cc2)cc1C1CN(S(=O)(=O)c2cnn(C)n2)CC(=O)N1Cc1ccccc1` (centres unmarked) [Example 153, 1-benzyl-6-(1-(4-fluorophenyl)-6-methyl-1H-indazol-5-yl)-4-((2-methyl-2H-1,2,3-triazol-4-yl)sulfonyl)piperazin-2-one] had a Ki of 380 nM.

As for `CC(C)CN1CCN(S(=O)(=O)c2cnn(C)n2)CC1c1cc2cnn(-c3ccc(F)cc3)c2cc1F` (centres unmarked) [Example 159, 6-fluoro-1-(4-fluorophenyl)-5-(1-isobutyl-4-((2-methyl-2H-1,2,3-triazol-4-yl)sulfonyl)piperazin-2-yl)-1H-indazole], the inhibition constant Ki was 220 nM.

`Cc1cc2c(cnn2-c2ccc(F)cc2)cc1C1CN(S(=O)(=O)c2cnn(C)n2)CCN1CC(C)(C)O` (centres unmarked) [Example 162, 1-(2-(1-(4-fluorophenyl)-6-methyl-1H-indazol-5-yl)-4-((2-methyl-2H-1,2,3-triazol-4-yl)sulfonyl)piperazin-1-yl)-2-methylpropan-2-ol] yielded an inhibitory constant (Ki) of 260 nM.

`CC(C)CN1CCN(S(=O)(=O)c2cnn(C)n2)CC1c1cc2cnn(-c3ccc(F)cc3)c2cc1C(F)(F)F` (centres unmarked) [Example 164, 1-(4-fluorophenyl)-5-(1-isobutyl-4-((2-methyl-2H-1,2,3-triazol-4-yl)sulfonyl)piperazin-2-yl)-6-(trifluoromethyl)-1H-indazole] displayed a Ki of 170 nM.

Molecule `Cc1cc2c(cnn2-c2ccc(=O)n(C)c2)cc1C1CN(S(=O)(=O)c2cnn(C)n2)CCN1CCC(F)(F)F` (centres unmarked) [Example 165, 1-methyl-5-(6-methyl-5-(4-((2-methyl-2H-1,2,3-triazol-4-yl)sulfonyl)-1-(3,3,3-trifluoropropyl)piperazin-2-yl)-1H-indazol-1-yl)pyridin-2(1H)-one] displayed a Ki of 81 nM.

As to `Cc1cc2c(cnn2-c2cccnc2)cc1C1CN(S(=O)(=O)c2cnn(C)n2)CCN1CCC(F)(F)F` (centres unmarked) [Example 167, 6-methyl-5-(4-((2-methyl-2H-1,2,3-triazol-4-yl)sulfonyl)-1-(3,3,3-trifluoropropyl)piperazin-2-yl)-1-(pyridin-3-yl)-1H-indazole], affinity was put at a Ki of 59 nM.

The molecule `Cc1cc2c(cnn2-c2cnn(C)c2)cc1C1CN(S(=O)(=O)c2cnn(C)n2)CCN1CCC(F)(F)F` (centres unmarked) [Example 168, 6-methyl-1-(1-methyl-1H-pyrazol-4-yl)-5-(4-((2-methyl-2H-1,2,3-triazol-4-yl)sulfonyl)-1-(3,3,3-trifluoropropyl)piperazin-2-yl)-1H-indazole] returned a Ki of 100 nM.

In another test the target is T1, glucocorticoid receptor. The test is described as follows: Hep G2 TAT IC50: inhibition of dexamethasone-induced TAT in HepG2 cells (384 well). Format: cell-based.
Settings: not given
As to the method:
Glucocorticoid mediated activation of TAT occurs by transactivation of glucocorticoid response elements in the TAT promoter by glucocorticoid receptor/agonist complex.
HepG2 cells were cultured using MEME media supplemented with 10% (v/v) foetal bovine serum, 2 mM L-glutamine, 1% (v/v) NEAA, and 1% (v/v) penstrep, at 37° C., 5%/95% (v/v) CO2/air.
Compounds were diluted from a 10 mM stock via an Echo Acoustic liquid handler into 10 μL assay media to generate a 10-point half-log dilution curve.
HepG2 cells were then lysed with 8 μL of cell lysis buffer containing a protease inhibitor cocktail for 15 minutes at 25° C. […] After a 2-hour incubation at 37° C. the reaction was terminated by the addition of 8 μL of 5 M aqueous potassium hydroxide solution, and the plates incubated for a further 30 minutes at 37° C.
[compound] and fitting the data to a 4-parameter logistic equation.
As a reminder, the IC50 is the concentration that gives 50% inhibition. Low readings indicate higher potency, high ones lower potency. Consider `Cc1cc2c(cnn2-c2ccc(F)cc2)cc1C1CN(S(=O)(=O)c2cccnn2)CCN1CCC(F)(F)F` (single isomer, unassigned) [Example 176, 1-(4-fluorophenyl)-6-methyl-5-(4-pyridazin-3-ylsulfonyl-1-(3,3,3-trifluoropropyl)piperazin-2-yl)indazole], for which inhibition was half-maximal at 841 nM (IC50).

Consider `Cc1cc2c(cnn2-c2ccc(F)cc2)cc1C1CN(S(=O)(=O)N2CCOCC2)CCN1CCC(F)(F)F` (single isomer, unassigned) [Example 177, 4-(3-(1-(4-fluorophenyl)-6-methyl-indazol-5-yl)-4-(3,3,3-trifluoropropyl)piperazin-1-yl)sulfonylmorpholine], for which half-maximal inhibition (IC50) required 2460 nM.

As to `Cc1cc2c(cnn2-c2ccc(F)cc2)cc1C1CN(S(=O)(=O)N2CCOCC2)CCN1CC1CCC1` (single isomer, unassigned) [Example 178, 4-(4-(cyclobutylmethyl)-3-[1-(4-fluorophenyl)-6-methyl-indazol-5-yl]piperazin-1-yl)sulfonylmorpholine], the 50% inhibitory concentration (IC50) was 3430 nM.

Turning to `Cc1cc2c(cnn2-c2ccc(F)cc2)cc1C1CN(S(=O)(=O)N2CCOCC2)CCN1CC1CC(F)(F)C1` (single isomer, unassigned) [Example 179, 4-(4-((3,3-difluorocyclobutyl)methyl)-3-(1-(4-fluorophenyl)-6-methyl-indazol-5-yl)piperazin-1-yl)sulfonylmorpholine], the IC50 came out at 2020 nM. This IC50 is about 1.7-fold lower than that of the molecule before.

On to `Cc1cc2c(cnn2-c2ccc(F)cc2)cc1C1CN(S(=O)(=O)N2CCOCC2)CCN1CC1CCCC1` (single isomer, unassigned) [Example 180, 4-(4-(cyclopentylmethyl)-3-(1-(4-fluorophenyl)-6-methyl-indazol-5-yl)piperazin-1-yl)sulfonylmorpholine], for which the IC50 worked out at 2090 nM.

`Cc1cc2c(cnn2-c2ccc(F)cc2)cc1C1CN(S(=O)(=O)N(C)C)CCN1CCC(F)(F)F` (single isomer, unassigned) [Example 181, 3-(1-(4-fluorophenyl)-6-methyl-indazol-5-yl)-N,N-dimethyl-4-(3,3,3-trifluoropropyl)piperazine-1-sulfonamide] returned a concentration for half-maximal inhibition (IC50) of 1660 nM.

Take `Cc1cc2c(cnn2-c2ccc(F)cc2)cc1C1CN(S(=O)(=O)N(C)C)CCN1CC1CCC1` (single isomer, unassigned) [Example 182, 4-(cyclobutylmethyl)-3-(1-(4-fluorophenyl)-6-methyl-indazol-5-yl)-N,N-dimethyl-piperazine-1-sulfonamide]: the IC50 is 3590 nM.

`Cc1cc2c(cnn2-c2ccc(F)cc2)cc1C1CN(S(=O)(=O)N(C)C)CCN1CC1CC(F)(F)C1` (single isomer, unassigned) [Example 183, 4-((3,3-difluorocyclobutyl)methyl)-3-(1-(4-fluorophenyl)-6-methyl-indazol-5-yl)-N,N-dimethyl-piperazine-1-sulfonamide] yielded an IC50 of 2660 nM.

As to `Cc1nc(S(=O)(=O)N2CCN(CC3CCC3)C(c3cc4cnn(-c5ccc(F)cc5)c4cc3C)C2)cs1` (single isomer, unassigned) [Example 184, 4-(4-(cyclobutylmethyl)-3-(1-(4-fluorophenyl)-6-methyl-indazol-5-yl)piperazin-1-yl)sulfonyl-2-methyl-thiazole], the half-inhibitory concentration (IC50) amounted to 1160 nM.

Values taken from patent publication US12098144B2, “Piperazine indazole glucocorticoid receptor antagonists” (Corcept Therapeutics Incorporated, priority 2021, dated 2024).
